From ChEMBL document CHEMBL4421722, “Inhibitors of protein prenyltransferases” (2013)

Key:
[1] = test system: CFPAC-1; test: Antiproliferative activity against human CFPAC-1 cells assessed as inhibition of cell proliferation incubated for 72 hrs by CCK8 assay; type: functional, cell-based; details: CFPAC-1, 72 h
[2] = test system: Capan-2; test: Antiproliferative activity against human Capan2 cells assessed as inhibition of cell proliferation incubated for 72 hrs by CCK8 assay; type: functional, cell-based; details: Capan-2, 72 h
[3] = test system: ASPC1; test: Antiproliferative activity against human AsPC1 cells assessed as inhibition of cell proliferation incubated for 6 days by CCK8 assay; type: functional, cell-based; details: ASPC1, 144 h
[4] = test system: MIA PaCa-2; test: Antiproliferative activity against human MIAPaCa2 cells assessed as inhibition of cell proliferation incubated for 72 hrs by CCK8 assay; type: functional, cell-based; details: MIA PaCa-2, 72 h
[5] = test system: K562; test: Induction of cell cycle arrest in human K562 cells assessed as reduction in accumulation at S phase incubated for 48 hrs by flow cytometry; type: functional, cell-based
[6] = Antiproliferative activity against human SEMK2 cells assessed as inhibition of cell proliferation incubated for 6 days by CCK8 assay; type: functional, cell-based; details: SEMK2, 144 h
[7] = Competitive inhibition of rat recombinant geranylgeranyltransferase type I expressed in Escherichia coli assessed as reduction in geranylgeranylation of RhoA incubated for 30 mins in presence of varying level of [3H]GGPP and fixed RhoA levels by scintillation counting assay relative to control
[8] = test system: K562; test: Induction of cell cycle arrest in human K562 cells assessed as accumulation at G1 phase incubated for 48 hrs by flow cytometry; type: functional, cell-based
[9] = test system: MCF7; test: Antiproliferative activity against human MCF7 cells assessed as inhibition of cell proliferation incubated for 6 days by CCK8 assay; type: functional, cell-based
[10] = test system: PANC-1; test: Antiproliferative activity against human PANC1 cells assessed as inhibition of cell proliferation incubated for 72 hrs by CCK8 assay; type: functional, cell-based; details: PANC-1, 72 h
[11] = test system: HPAC; test: Antiproliferative activity against human HPAC cells assessed as inhibition of cell proliferation incubated for 72 hrs by CCK8 assay; type: functional, cell-based
[12] = test system: Jurkat; test: Antiproliferative activity against human Jurkat cells assessed as inhibition of cell proliferation incubated for 72 hrs by CCK8 assay; type: functional, cell-based
[13] = test system: BT-474; test: Antiproliferative activity against human BT474 cells assessed as inhibition of cell proliferation incubated for 72 hrs by CCK8 assay; type: functional, cell-based; details: BT-474, 72 h

For `Cc1ccccc1S(=O)(=O)N1[C@@H](c2ccc(Cl)cc2)C(COCC(=O)N[C@@H](Cc2ccccc2)C(N)=O)=C[C@H]1C(C)(C)C`, the IC50 [1] was 8.1 µM, the IC50 [2] was 11.1 µM and the IC50 [3] was > 20 µM. For the same molecule, the IC50 [4] was 13.9 µM, the Activity [5] was “Dose-dependent effect” and the IC50 [6] was 14.1 µM. The IC50 [7] was 12.5 µM, the Activity [8] was “Dose-dependent effect” and the inhibition [9] was “Dose-dependent effect”. The IC50 ([9]; MCF7, 144 h) was 6.4 µM, the IC50 [10] was 12.6 µM and the IC50 [11] was 11.7 µM. For the same molecule, the IC50 [12] was 1.3 µM and the IC50 [13] was 11.6 µM.
